What was measured:
AVEFA = test: Post-emergence herbicidal action against AVEFA; assay type: in vivo, Avena fatua; conditions: 20 g/ha, visual assessment about 3 weeks after treatment, 100% = plants have died, 0% = like control plants
How it was run: (§1)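 Greenhouse plants in sandy loam were sprayed at the one-leaf stage, 2 to 3 weeks after sowing, with WP or EC formulations as aqueous suspension or emulsion (600 to 800 l/ha water, 0.2% wetting agent). Visual damage was scored about 3 weeks later versus untreated controls, 0% = like control, 100% = dead.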

ABUTH [1] = test: Pre-emergence herbicidal action against ABUTH; assay type: in vivo, Abutilon theophrasti
How it was run: (§2)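 Pre-emergence soil-surface spray of formulated compound (WP or EC; 600 to 800 l/ha; 0.2% wetting agent) over seeds sown in sandy loam. After 3 weeks under greenhouse conditions, damage is estimated visually in percent against untreated plants.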

ECHCG [2] = test: Post-emergence herbicidal action against ECHCG; assay type: in vivo, Echinochloa crus-galli
How it was run: as §1

DIGSA [3] = test: Pre-emergence herbicidal action against DIGSA; assay type: in vivo, Digitaria sanguinalis
How it was run: as §2

SETVI [4] = test: Post-emergence herbicidal action against SETVI; assay type: in vivo, Setaria viridis
How it was run: as §1

VIOTR = test: Pre-emergence herbicidal action against VIOTR; assay type: in vivo, Viola tricolor; conditions: dosage 80 g/ha
How it was run: as §2

ALOMY = test: Pre-emergence herbicidal action against ALOMY; assay type: in vivo, Alopecurus myosuroides; conditions: 80 g/ha, pre-emergence, scored visually after 3 weeks vs untreated controls (100% = plants have died, 0% = like control plants)
How it was run: as §2

POLCO = test: Pre-emergence herbicidal action against POLCO; assay type: in vivo, Polygonum convolvulus; conditions: dosage 80 g/ha
How it was run: as §2

AMARE [5] = test: Pre-emergence herbicidal action against AMARE; assay type: in vivo, Amaranthus retroflexus
How it was run: as §2

VERPE [6] = test: Post-emergence herbicidal action against VERPE; assay type: in vivo, Veronica persica; conditions: 20 g/ha
How it was run: as §1

ABUTH [7] = test: Post-emergence herbicidal action against ABUTH; assay type: in vivo, Abutilon theophrasti; conditions: visual assessment about 3 weeks after treatment vs untreated controls
How it was run: as §1

MATIN [8] = test: Pre-emergence herbicidal action against MATIN; assay type: in vivo, Matricaria inodora
How it was run: as §2

VERPE [9] = test: Pre-emergence herbicidal action against VERPE; assay type: in vivo, Veronica persica; conditions: dosage 80 g/ha
How it was run: as §2

SETVI [10] = test: Pre-emergence herbicidal action against SETVI; assay type: in vivo, Setaria viridis; conditions: dosage 80 g/ha
How it was run: as §2

ECHCG [11] = test: Pre-emergence herbicidal action against ECHCG; assay type: in vivo, Echinochloa crus-galli; conditions: 80 g/ha
How it was run: as §2

AMARE [12] = test: Post-emergence herbicidal action against AMARE; assay type: in vivo, Amaranthus retroflexus; conditions: 20 g/ha, visual assessment about 3 weeks after treatment, 100% = plants have died, 0% = like control plants
How it was run: as §1

DIGSA [13] = test: Post-emergence herbicidal action against DIGSA; assay type: in vivo, Digitaria sanguinalis
How it was run: as §1

MATIN [14] = test: Post-emergence herbicidal action against MATIN; assay type: in vivo, Matricaria inodora; conditions: dosage 20 g/ha
How it was run: as §1

PHBPU = test: Post-emergence herbicidal action against PHBPU; assay type: in vivo, Pharbitis purpurea
How it was run: as §1

[15] = 80 g/ha, scored visually after 3 weeks vs untreated controls (100% = plants have died, 0% = like control plants)

Cc1c(C(=O)Nc2nnnn2C)ccc(C(F)F)c1C(=O)NCC(F)F [Example 1-49]
Post-emergence action at 20 g/ha against AVEFA in % (AVEFA): 80%
Pre-emergence action against ABUTH (herbicidal activity) (ABUTH [1]; [15]): 100%
Pre-emergence action against ABUTH (herbicidal activity in percent) (ABUTH [1]; dosage 20 g/ha, scored visually after 3 weeks vs untreated controls, 100% = plants have died, 0% = like control plants): 80%
Post-emergence action against ECHCG in % (ECHCG [2]; dosage 5 g/ha): 80%
Post-emergence action against ECHCG in % (ECHCG [2]; dosage 20 g/ha): 90%
Pre-emergence action against DIGSA in % (DIGSA [3]; dosage 20 g/ha): 90%
Pre-emergence action against DIGSA in % (DIGSA [3]; dosage 80 g/ha): 100%
Post-emergence action against SETVI in % (SETVI [4]; dosage 5 g/ha): 90%
Post-emergence action against SETVI in % (SETVI [4]; dosage 20 g/ha): 100%
Pre-emergence action against VIOTR in % (VIOTR): 100%
Pre-emergence action against ALOMY (herbicidal activity) (ALOMY): 80%
Pre-emergence action against POLCO in % (POLCO): 90%
Pre-emergence action against AMARE in % (AMARE [5]; 20 g/ha, scored visually after 3 weeks vs untreated controls, 100% = plants have died, 0% = like control plants): 100%
Pre-emergence action against AMARE in % (AMARE [5]; [15]): 100%
Post-emergence action against VERPE in % (VERPE [6]): 90%
Post-emergence action against ABUTH in % (ABUTH [7]; dosage 5 g/ha): 90%
Post-emergence action against ABUTH in % (ABUTH [7]; dosage 20 g/ha): 90%
Pre-emergence action against MATIN in % (MATIN [8]; dosage 20 g/ha): 90%
Pre-emergence action against MATIN in % (MATIN [8]; dosage 80 g/ha): 100%
Pre-emergence action against VERPE in % (VERPE [9]): 100%
Pre-emergence action against SETVI in % (SETVI [10]): 80%
Pre-emergence action against ECHCG in % (ECHCG [11]): 80%
Post-emergence action at 20 g/ha against AMARE in % (AMARE [12]): 90%
Post-emergence action against DIGSA in % (DIGSA [13]; 5 g/ha): 80%
Post-emergence action against DIGSA (DIGSA [13]; 20 g/ha): 90%
Post-emergence action against MATIN in % (MATIN [14]): 80%
Post-emergence action against PHBPU in % (PHBPU; dosage 5 g/ha): 80%
Post-emergence action against PHBPU in % (PHBPU; dosage 20 g/ha): 90%

From patent publication US12655116B2, “Substituted isophthalic acid diamides” (Bayer Aktiengesellschaft, priority 2020, dated 2026)
